Reference: PubChem BioAssay AID2060508 (Molecular Pharmacology Branch, DTP, NCI, 2025)
pIC50: −log10 of the molar value.

Tested on: 454973-116-R2-J3-PDC spheroids, viability, % test/control
Test: Anticancer human tumor 454973-116-R2-J3-PDC patient-derived pancreatic carcinoma cell line growth inhibition [GQUAD]
Conditions: spheroids with HUVEC and MSC; for pIC50: curve of first compound; for viability, T/C: stronger effect = lower value
Summary of the method: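 Viability of tumor cells grown as complex spheroids with endothelial and stromal cells, exposed to drug combinations. Top concentration at or near clinical Cmax (else 10 microM), diluted in half-log increments.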

[1] = second compound 0.0316 µM, first compound 0.0316 µM
[2] = second compound 0.0316 µM, first compound 0.316 µM
[3] = second compound 0.1 µM, first compound 0.0316 µM
[4] = second compound 0.1 µM, first compound 0.316 µM
[5] = second compound 0.316 µM, first compound 0.0316 µM
[6] = second compound 0.316 µM, first compound 0.316 µM
[7] = second compound 1 µM, first compound 0.0316 µM
[8] = second compound 1 µM, first compound 0.316 µM
[9] = second compound 3.16 µM, first compound 0.0316 µM
[10] = second compound 3.16 µM, first compound 0.316 µM
[11] = second compound 10 µM, first compound 0.0316 µM
[12] = second compound 10 µM, first compound 0.316 µM
[13] = second compound 0.0316 µM, first compound 0.000999 µM
[14] = second compound 0.0316 µM, first compound 0.00316 µM
[15] = second compound 0.0316 µM, first compound 0.00999 µM
[16] = second compound 0.0316 µM, first compound 0.0999 µM
[17] = second compound 0.1 µM, first compound 0.000999 µM
[18] = second compound 0.1 µM, first compound 0.00316 µM
[19] = second compound 0.1 µM, first compound 0.00999 µM
[20] = second compound 0.1 µM, first compound 0.0999 µM
[21] = second compound 0.316 µM, first compound 0.000999 µM
[22] = second compound 0.316 µM, first compound 0.00316 µM
[23] = second compound 0.316 µM, first compound 0.00999 µM
[24] = second compound 0.316 µM, first compound 0.0999 µM
[25] = second compound 1 µM, first compound 0.000999 µM
[26] = second compound 1 µM, first compound 0.00316 µM
[27] = second compound 1 µM, first compound 0.00999 µM
[28] = second compound 1 µM, first compound 0.0999 µM
[29] = second compound 3.16 µM, first compound 0.000999 µM
[30] = second compound 3.16 µM, first compound 0.00316 µM
[31] = second compound 3.16 µM, first compound 0.00999 µM
[32] = second compound 3.16 µM, first compound 0.0999 µM
[33] = second compound 10 µM, first compound 0.000999 µM
[34] = second compound 10 µM, first compound 0.00316 µM
[35] = second compound 10 µM, first compound 0.00999 µM
[36] = second compound 10 µM, first compound 0.0999 µM
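Further: spheroids exposed to compounds for seven days.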
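Wherever viability, T/C is given: 100% = DMSO vehicle control viability.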

With `C=CC(=O)N1CCN(c2nc(=O)n(-c3c(C)ccnc3C(C)C)c3nc(-c4c(O)cccc4F)c(F)cc23)C(C)C1` (stereo unspecified) + CN(C)c1ccc(Nc2c3ccc(NC(=O)CCN4CCCC4)cc3nc3cc(NC(=O)CCN4CCCC4)ccc23)cc1 as the molecule, how does the pIC50 (second compound 0.0316 µM) read?
Its pIC50 is under 5.00.

And the pIC50 (second compound 0.1 µM)?
The pIC50 was under 5.00.

And the pIC50 (second compound 0.316 µM)?
Its pIC50 is under 5.00.

And the pIC50 (second compound 1 µM)?
Its pIC50 is under 5.00.

And the pIC50 (second compound 3.16 µM)?
Its pIC50 is under 5.00.

What about the pIC50 (second compound 10 µM) of the same molecule?
The pIC50 was under 5.00.

And the viability, T/C [1]?
Its viability, T/C is 112%.

What about the viability, T/C (second compound 0.0316 µM, first compound 0.1 µM) of the same molecule?
Its viability, T/C is 103%.

And the viability, T/C [2]?
Its viability, T/C is 110%.

And the viability, T/C (second compound 0.0316 µM, first compound 1 µM)?
Its viability, T/C is 112%.

And the viability, T/C (second compound 0.0316 µM, first compound 3.16 µM)?
The viability, T/C was 102%.

What about the viability, T/C (second compound 0.0316 µM, first compound 10 µM) of the same molecule?
Its viability, T/C is 115%.

And the viability, T/C [3]?
The viability, T/C was 103%.

And the viability, T/C (second compound 0.1 µM, first compound 0.1 µM)?
Its viability, T/C is 98.9%.

And the viability, T/C [4]?
Its viability, T/C is 107%.

What about the viability, T/C (second compound 0.1 µM, first compound 1 µM) of the same molecule?
The viability, T/C was 107%.

What about the viability, T/C (second compound 0.1 µM, first compound 3.16 µM) of the same molecule?
Its viability, T/C is 102%.

What about the viability, T/C (second compound 0.1 µM, first compound 10 µM) of the same molecule?
The viability, T/C was 112%.

What about the viability, T/C [5] of the same molecule?
Its viability, T/C is 107%.

What about the viability, T/C (second compound 0.316 µM, first compound 0.1 µM) of the same molecule?
The viability, T/C was 103%.

And the viability, T/C [6]?
The viability, T/C was 103%.

What about the viability, T/C (second compound 0.316 µM, first compound 1 µM) of the same molecule?
Its viability, T/C is 110%.

What about the viability, T/C (second compound 0.316 µM, first compound 3.16 µM) of the same molecule?
The viability, T/C was 99.5%.

And the viability, T/C (second compound 0.316 µM, first compound 10 µM)?
The viability, T/C was 111%.

What about the viability, T/C [7] of the same molecule?
Its viability, T/C is 97.3%.

And the viability, T/C (second compound 1 µM, first compound 0.1 µM)?
The viability, T/C was 91.8%.

And the viability, T/C [8]?
Its viability, T/C is 104%.

What about the viability, T/C (second compound 1 µM, first compound 1 µM) of the same molecule?
Its viability, T/C is 86.7%.

What about the viability, T/C (second compound 1 µM, first compound 3.16 µM) of the same molecule?
The viability, T/C was 102%.

What about the viability, T/C (second compound 1 µM, first compound 10 µM) of the same molecule?
Its viability, T/C is 100%.

What about the viability, T/C [9] of the same molecule?
The viability, T/C was 97.7%.

What about the viability, T/C (second compound 3.16 µM, first compound 0.1 µM) of the same molecule?
The viability, T/C was 90.7%.

What about the viability, T/C [10] of the same molecule?
Its viability, T/C is 93.8%.

And the viability, T/C (second compound 3.16 µM, first compound 1 µM)?
The viability, T/C was 77.7%.

And the viability, T/C (second compound 3.16 µM, first compound 3.16 µM)?
Its viability, T/C is 103%.

And the viability, T/C (second compound 3.16 µM, first compound 10 µM)?
Its viability, T/C is 105%.

What about the viability, T/C [11] of the same molecule?
The viability, T/C was 83.4%.

What about the viability, T/C (second compound 10 µM, first compound 0.1 µM) of the same molecule?
Its viability, T/C is 77.9%.

And the viability, T/C [12]?
Its viability, T/C is 82.4%.

And the viability, T/C (second compound 10 µM, first compound 1 µM)?
Its viability, T/C is 68.5%.

What about the viability, T/C (second compound 10 µM, first compound 3.16 µM) of the same molecule?
The viability, T/C was 79%.

And the viability, T/C (second compound 10 µM, first compound 10 µM)?
The viability, T/C was 77.5%.

Which results are given for `CC[C@@]1(O)C(=O)OCc2c1cc1n(c2=O)Cc2cc3c(CN(C)C)c(O)ccc3nc2-1` + CN(C)c1ccc(Nc2c3ccc(NC(=O)CCN4CCCC4)cc3nc3cc(NC(=O)CCN4CCCC4)ccc23)cc1?
pIC50 (second compound 0.0316 µM): 7.34; pIC50 (second compound 0.1 µM): 7.40; pIC50 (second compound 0.316 µM): 7.52; pIC50 (second compound 1 µM): 7.49; pIC50 (second compound 3.16 µM): 7.52; pIC50 (second compound 10 µM): 7.54; viability, T/C [13]: 97.5%; viability, T/C [14]: 97.7%; viability, T/C [15]: 99.5%; viability, T/C [1]: 64%; viability, T/C [16]: 18.2%; viability, T/C [2]: 20.1%; viability, T/C [17]: 111%; viability, T/C [18]: 102%; viability, T/C [19]: 88.4%; viability, T/C [3]: 60.6%; viability, T/C [20]: 18.2%; viability, T/C [4]: 20.5%; viability, T/C [21]: 101%; viability, T/C [22]: 111%; viability, T/C [23]: 82.1%; viability, T/C [5]: 51.3%; viability, T/C [24]: 23.4%; viability, T/C [6]: 23%; viability, T/C [25]: 99.3%; viability, T/C [26]: 89.8%; viability, T/C [27]: 87.1%; viability, T/C [7]: 51.7%; viability, T/C [28]: 20.3%; viability, T/C [8]: 21.7%; viability, T/C [29]: 98.7%; viability, T/C [30]: 82.4%; viability, T/C [31]: 83%; viability, T/C [9]: 47.7%; viability, T/C [32]: 27.6%; viability, T/C [10]: 23.4%; viability, T/C [33]: 83.9%; viability, T/C [34]: 71.8%; viability, T/C [35]: 61.5%; viability, T/C [11]: 53.6%; viability, T/C [36]: 31%; viability, T/C [12]: 25.7%

With `CCc1c2c(nc3ccc(O)cc13)-c1cc3c(c(=O)n1C2)COC(=O)[C@]3(O)CC` + CN(C)c1ccc(Nc2c3ccc(NC(=O)CCN4CCCC4)cc3nc3cc(NC(=O)CCN4CCCC4)ccc23)cc1 as the molecule, how does the pIC50 (second compound 0.0316 µM) read?
The pIC50 was 8.78.

And the pIC50 (second compound 0.1 µM)?
The pIC50 was 8.77.

And the pIC50 (second compound 0.316 µM)?
Its pIC50 is 8.82.

What about the pIC50 (second compound 1 µM) of the same molecule?
The pIC50 was 8.77.

And the pIC50 (second compound 3.16 µM)?
Its pIC50 is 8.79.

What about the pIC50 (second compound 10 µM) of the same molecule?
Its pIC50 is 8.83.

What about the viability, T/C [13] of the same molecule?
Its viability, T/C is 67.9%.

And the viability, T/C [14]?
The viability, T/C was 23.9%.

And the viability, T/C [15]?
Its viability, T/C is 21.6%.

And the viability, T/C [1]?
The viability, T/C was 15.2%.

What about the viability, T/C [16] of the same molecule?
The viability, T/C was 6.24%.

And the viability, T/C [2]?
The viability, T/C was 5.45%.

And the viability, T/C [17]?
The viability, T/C was 68.1%.

And the viability, T/C [18]?
Its viability, T/C is 25.9%.

And the viability, T/C [19]?
Its viability, T/C is 21.8%.

And the viability, T/C [3]?
The viability, T/C was 14.1%.

What about the viability, T/C [20] of the same molecule?
The viability, T/C was 6.39%.

What about the viability, T/C [4] of the same molecule?
The viability, T/C was 4.95%.

What about the viability, T/C [21] of the same molecule?
The viability, T/C was 61.4%.

What about the viability, T/C [22] of the same molecule?
Its viability, T/C is 27.2%.

What about the viability, T/C [23] of the same molecule?
The viability, T/C was 22.3%.

What about the viability, T/C [5] of the same molecule?
Its viability, T/C is 12.3%.

What about the viability, T/C [24] of the same molecule?
The viability, T/C was 7.81%.

What about the viability, T/C [6] of the same molecule?
Its viability, T/C is 5.5%.

What about the viability, T/C [25] of the same molecule?
The viability, T/C was 65.6%.

What about the viability, T/C [26] of the same molecule?
Its viability, T/C is 27.5%.

What about the viability, T/C [27] of the same molecule?
Its viability, T/C is 23.8%.

And the viability, T/C [7]?
Its viability, T/C is 11.9%.

And the viability, T/C [28]?
Its viability, T/C is 8.79%.

And the viability, T/C [8]?
The viability, T/C was 5.09%.

And the viability, T/C [29]?
Its viability, T/C is 62.5%.

And the viability, T/C [30]?
The viability, T/C was 30.7%.

What about the viability, T/C [31] of the same molecule?
Its viability, T/C is 24.4%.

And the viability, T/C [9]?
The viability, T/C was 13.8%.

What about the viability, T/C [32] of the same molecule?
The viability, T/C was 11.1%.

What about the viability, T/C [10] of the same molecule?
The viability, T/C was 5.7%.

And the viability, T/C [33]?
The viability, T/C was 59.1%.

What about the viability, T/C [34] of the same molecule?
Its viability, T/C is 31.2%.

What about the viability, T/C [35] of the same molecule?
Its viability, T/C is 24.9%.

What about the viability, T/C [11] of the same molecule?
Its viability, T/C is 19.7%.

And the viability, T/C [36]?
Its viability, T/C is 12.6%.

And the viability, T/C [12]?
Its viability, T/C is 9.24%.
